Measurements: patent US5804576A, “Derivatives of 5-androsten-17-ones and 5-androstan-17-ones” (Research Corporation Technologies, Inc., priority 1986, dated 1998)
Read-outs that look alike come from different tables or passages of the source.

Tests used:
[1] = test system: 3H-thymidine incorporation in mouse epidermis; settings: in vivo; cited from earlier work
[2] = test system: Epstein-Barr virus-induced transformation of human lymphocytes; settings: cited from earlier work
mouse breast epithilum = settings: in vivo; cited from earlier work
[3] = test system: mammalian glucose-6-phosphate dehydrogenase (G6PDH); settings: cited from earlier work
[4] = test system: TPA (Tumor Promoter) Stimulation of Mouse Epidermal DNA; test: Inhibition of TPA stimulation of mouse epidermal DNA synthesis (3H-thymidine incorporation), oral; format: in vivo, mouse (ICR male)
Excerpt: Synthesis rate by orally administered steroids.
The inhibition of tumor promoter stimulation of mouse epidermal DNA synthesis rate by steroids may also contribute to cancer preventive activity. The following assay is used:
(§1) ICR male mice (7-9 weeks old) were shaved on the back 1-2 days before use. Only mice showing no hair regrowth were used. Animals were orally intubated with a particular steroid suspended by homogenization in sesame oil or with sesame oil alone (controls). One hour later TPA (10 μg in 0.2 ml of acetone) or acetone vehicle was applied topically to the shaved skin. Twenty hours later, mice were injected i.p. with 60 μCi of ^3 H-thymidine 20 minutes before sacrifice. The animals were killed by cervical dislocation and the residual hair was removed with a depilatory agent. Epidermal scrapings were prepared according to the procedures of Hennings et al. (Cancer Res. 28, 53, 1968), homogenized in distilled water at 4° C., and the macromolecules precipitated with 0.4N trichloroacetic acid (TCA). Following 6 washes with absolute ethanol at room temperature, the nucleic acids were hydrolyzed with 0.5N TCA at 70° C. for 5 minutes. The hydrolysate (0.2 ml aliquots) were counted in an Intertechnique scintillation counter and assayed for DNA by the diphenylamine reaction.
(§2) The data are expressed as counts per minute (cpm) of tritium per μg of DNA.
A similar oral dose-response experiment with compound 16 and DHEA was performed.
(§3) Both of the above tests, i.e., the inhibition of mammalian glucose-6-phosphate dehydrogenase (G6PDH) and the inhibition of tumor promoter (TPA) stimulation of ^3 H-thymidine incorporation in mouse epidermis are recognized as indicators of cancer prophylactic activity. The following Table compares the efficacy of representative compounds of the present invention in these two tests with that of DHEA:
(§4) Male ICR mice were orally intubated with steroid suspended in sesame oil (0.5 ml/mouse) at the indicated dose. Mice not receiving steroid were given sesame oil alone. One hour later mice received topical application of TPA and 20 hours later the rate of ^3 H-thymidine incorporation into the epidermis was determined as described in Table 4.
as §4, with “TPA,” for “TPA”

rat uterus = test: Uterotrophic test, subcutaneous (Compound 2 vs. DHEA); format: in vivo; settings: for Mean Uterine Weight: n = 4 or 5
Experimental: Twenty-two day old rats were obtained from Charles River Laboratories. Animals were used at 29 days of age. Test steroids were suspended by homogenization in sesame oil. Rats were orally intubated at 1-2 P.M. for 3 days with a test steroid in sesame oil or with sesame oil alone (control). On the 4th day the animals were killed and the uteri were removed and weighed.
Compound 2 vs. DHEA. Compounds Administered by Subcutaneous Injection
Steroids were dissolved in 2 ml ethanol and brought up to 5 ml volume with propylene glycol. Concentrations were such that 1 μl/gm body weight delivered the indicated dose.

[5] = test system: TPA stimulation in DNA synthesis rate (mouse epidermis); test: Inhibition of TPA stimulation of mouse epidermal DNA synthesis, intraperitoneal; format: in vivo, mouse (ICR male); settings: i.p. dose-response
Experimental: as §1, §2
Compound 2 or 3 in comparison with DHEA by Intraperitoneal Injection.
Steroids were suspended in sterile 95% saline--5% Emulphor and injected intraperitoneally. Otherwise conditions were the same as when steroids were orally administered.

[6] = Anti-obesity test (body weight, food consumption); format: in vivo, mouse (male A/J); settings: n = 5
Experimental: Male A/J mice (5 weeks old) were obtained from the Jackson Laboratory and were housed in polycarbonate cages (5 mice/cage) in animal quarters maintained at 24°±1° C. with 12 hours of light and 12 hours of darkness each day. One week after arrival, the mice were placed on a chow diet containing varying concentrations of DHEA or other steroid. Animals were weighed weekly; food consumption was determined weekly by subtracting the amount of food remaining in the cage from the amount added.
Male A/J (5 weeks old) were obtained from the Jackson Laboratory and were housed in polycarbonate cages (5 mice/cage) in animal quarters maintained at 24°±1° C. with 12 hours of light and 12 hours of darkness each day. One week after arrival, the mice were placed on a diet containing either DHEA, 19, or without steroid. Animals were weighed weekly. The concentration of DHEA or 19 used in the food was 0.54%.
Male A/J mice (5 weeks old) were obtained from the Jackson Laboratory and were housed in polycarbonate cages (5 mice/cage) in animal quarters maintained at 24°±1° C. with 12 hours of light and 12 hours of darkness each day. One week after arrival, the mice were placed on a show diet containing DHEA, 16, or 21 at 0.36%. Animals were weighed weekly.

[7] = target: T1, purified bovine adrenal G6PDH (Bos taurus, UniProt F1MMK2); test: Inhibition of purified bovine adrenal G6PDH; format: biochemical; settings: read-out: Percent Inhibition (G6PDH); for inhibition at 0.1 µM: Conc. 0.1 μm; for inhibition at 1 µM: Conc. 1 μm; for inhibition at 10 µM: Conc. 10 μm
T1 construct: full-length, wild type, no tag
Excerpt: The compounds listed below are screened as inhibitors of purified bovine adrenal G6PDH activity as one predictor of cancer preventive action. The assay for testing the inhibition of purified bovine adrenal G6PDH is according to the procedure by Oertel, G. W. and Rebelein, I. in Biochem. Biophys. Acta, 184, 459-460 (1969). The results are given below in Table I:
as §3, with “DHEA: […]” for “DHEA:”

T1 sequence (F1MMK2 31-70): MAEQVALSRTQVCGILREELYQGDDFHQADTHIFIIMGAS
T1 sequence (F1MMK2 101-575): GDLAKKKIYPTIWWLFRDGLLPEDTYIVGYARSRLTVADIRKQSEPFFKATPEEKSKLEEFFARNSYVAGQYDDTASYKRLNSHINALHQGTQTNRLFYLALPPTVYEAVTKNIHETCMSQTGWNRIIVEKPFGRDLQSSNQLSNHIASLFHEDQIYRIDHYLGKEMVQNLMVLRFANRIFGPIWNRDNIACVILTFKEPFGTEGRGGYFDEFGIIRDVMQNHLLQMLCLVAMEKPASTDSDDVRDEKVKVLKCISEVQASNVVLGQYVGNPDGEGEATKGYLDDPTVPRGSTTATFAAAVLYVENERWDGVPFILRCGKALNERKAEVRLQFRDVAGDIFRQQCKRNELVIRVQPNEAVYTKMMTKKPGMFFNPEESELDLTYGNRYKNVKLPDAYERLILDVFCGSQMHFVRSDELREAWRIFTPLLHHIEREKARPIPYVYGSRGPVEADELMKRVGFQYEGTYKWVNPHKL

| Compound | blocking the TPA stimulation in DNA synthesis rate, compared with DHEA (in words) [5] | mean weekly weight ([6]; 0.35% of diet, week 0) [grams] | mean weekly weight ([6]; 0.35% of diet, week 1) [grams] | mean weekly weight ([6]; 0.35% of diet, week 2) [grams] | mean weekly weight ([6]; 0.35% of diet, week 3) [grams] | mean weekly weight ([6]; 0.35% of diet, week 4) [grams] | mean weekly weight ([6]; 0.35% of diet, week 5) [grams] | mean weekly weight ([6]; 0.7% of diet, week 0) [grams] | mean weekly weight ([6]; 0.7% of diet, week 1) [grams] | mean weekly weight ([6]; 0.7% of diet, week 2) [grams] | mean weekly weight ([6]; 0.7% of diet, week 3) [grams] | mean weekly weight ([6]; 0.7% of diet, week 4) [grams] | mean weekly weight ([6]; 0.7% of diet, week 5) [grams] | inhibition at 0.1 µM [7] [%] | inhibition at 1 µM [7] [%] | inhibition at 10 µM [7] [%] | other results |
| --- | --- | --- | --- | --- | --- | --- | --- | --- | --- | --- | --- | --- | --- | --- | --- | --- | --- |
| C[C@]12CC[C@H](O)C[C@@H]1CC[C@@H]1[C@@H]2CC[C@]2(C)C(=O)[C@H](Br)C[C@@H]12 [16α-bromo-epiandrosterone, 3β-hydroxy-16α-bromo-5α-androstan-17-one] |  |  |  |  |  |  |  |  |  |  |  |  |  |  |  |  | 3H-thymidine incorporation in mouse epidermis (in words) [1]: more active than DHEA; inhibition of Epstein-Barr virus-induced transformation (in words) [2]: inhibitors of Epstein-Barr virus-induced transformation of human lymphocytes; rate of [3H] thymidine incorporation into breast epithelium (in words) (mouse breast epithilum): more active than DHEA; inhibition of mammalian G6PDH (in words) [3]: more potent inhibitor of mammalian G6PDH than DHEA; inhibition of mammalian G6PDH (in words) ([3]; listed as 16α-Br-epiandrosterone): more active than DHEA in inhibiting G6PDH |
| C[C@]12CC[C@H](O)C[C@@H]1CC[C@@H]1[C@@H]2CC[C@]2(C)C(=O)CC[C@@H]12 [Compound 2] | about as active as DHEA | 21.8 ± 1.6 | 21.8 ± 1.3 | 22.0 ± 1.2 | 22.8 ± 1.3 | 24.2 ± 1.1 | 24.4 ± 1.7 | 21.3 ± 1.8 | 20.6 ± 2.3 | 20.6 ± 0.5 | 20.8 ± 0.8 | 22.6 ± 0.6 | 22.4 ± 0.5 | 36 | 64 | 82 | blocking the TPA stimulation in DNA synthesis rate (in words) ([4]; 200 mg/kg or 100 mg/kg oral): not active at 200 mg/kg or 100 mg/kg; Mean Uterine Weight (rat uterus; 10 mg/kg s.c.): 151 ± 32 Mgs; Mean Uterine Weight (rat uterus; 60 mg/kg s.c.): 127 ± 32 Mgs; estrogenic activity (in words) (rat uterus; rat uterotrophic test, s.c.): Neither compounds 16 nor 2 are estrogenic; mean weekly weight ([6]; 0.35% of diet, week 6): 24.8 ± 1.5 grams; mean weekly weight ([6]; 0.35% of diet, week 7): 25.4 ± 1.7 grams; mean weekly weight ([6]; 0.7% of diet, week 6): 23.5 ± 0.9 grams; mean weekly weight ([6]; 0.7% of diet, week 7): 23.8 ± 0.8 grams |
| C[C@]12CCCC[C@@H]1CC[C@@H]1[C@@H]2CC[C@]2(C)C(=O)CC[C@@H]12 [Compound 3] | more active in blocking the TPA stimulation in DNA synthesis rate | 21.8 ± 2.2 | 22.6 ± 1.8 | 23.6 ± 1.8 | 24.8 ± 1.8 | 24.6 ± 1.8 | 24.8 ± 1.9 | 21.6 ± 2.6 | 20.0 ± 1.9 | 21.3 ± 1.8 | 21.8 ± 1.6 | 22.0 ± 1.6 | 21.4 ± 1.1 | 10 | 69 | 80 | activity compared with DHEA, TPA stimulation (in words) ([4]; 200 mg/kg oral): somewhat more active than DHEA |
